# Read-outs that look alike come from different tables or passages of the source.
# Experiment: In vitro MRI determination of longitudinal and transverse relaxation rates (r1, r2) of aqueous solutions
# Format: physicochemical
# Conditions: for r1 (longitudinal relaxation rate) / r2 (transverse relaxation rate): aqueous solutions
# [1] = H0 3.0 T clinical MRI system (Philips, Ingenia)
# [2] = H0 7.0 T small animal MRI system
Compound,r2/r1 (H0 3.0 T),r1 (longitudinal relaxation rate) [1] [M⁻¹ s⁻¹],r2 (transverse relaxation rate) [1] [M⁻¹ s⁻¹],r1 (longitudinal relaxation rate) [2] [M⁻¹ s⁻¹],r2/r1
"O=C([O-])CN1CCN(CC(=O)[O-])CCN([C@H](CO)[C@H](O)CO)CCN(CC(=O)[O-])CC1.[Gd+3] (racemic) [Gadavist, Gd-BT-DO3A]",1.07 ± 0.03,4600 ± 90,4900 ± 40,3770,
"O=[N+]([O-])[O-].O=[N+]([O-])[O-].O=[N+]([O-])[O-].[Gd+3] [Gd(NO3)3, gadolinium nitrate]",,11390 ± 250,12040 ± 310,8920,1.06 ± 0.006
"O=C([O-])CN(CCN(CC(=O)[O-])CC(=O)O)CCN(CC(=O)[O-])CC(=O)O.[Gd+3] [Magnevist, Gd-DTPA]",1.03 ± 0.03,4880 ± 120,5000 ± 100,3680,
Gd-BSA: gadolinium chelate of bovine serum albumin,1.72±0.02,34880 ± 1060,59920 ± 1570,,
